Data on 27 compounds can be found in ChEMBL document CHEMBL1148718, “Structure-activity relationship study on N-(1,2,3,4-tetrahydronaphthalen-1-yl)-4-aryl-1-piperazinehexanamides, a class of 5-HT7 receptor agents. 2” (J Med Chem, 2007).

What is called inhibition is how much of the control response was suppressed. What is called Ki is a measure of affinity in units of concentration, obtained from inhibition or displacement. By EC50 is commonly meant the midpoint of the concentration-response curve.

Molecules are shown by their SMILES.

The target in assay [1] is T1, D(2) dopamine receptor (Homo sapiens, UniProt P14416). As to the kind of experiment: Displacement of [3H]spiroperidol from human recombinant Dopamine D2 long receptor […]. (In general: In a radioligand displacement assay an active substance lowers the binding of a labelled ligand.)
T1 sequence (P14416 whole entry): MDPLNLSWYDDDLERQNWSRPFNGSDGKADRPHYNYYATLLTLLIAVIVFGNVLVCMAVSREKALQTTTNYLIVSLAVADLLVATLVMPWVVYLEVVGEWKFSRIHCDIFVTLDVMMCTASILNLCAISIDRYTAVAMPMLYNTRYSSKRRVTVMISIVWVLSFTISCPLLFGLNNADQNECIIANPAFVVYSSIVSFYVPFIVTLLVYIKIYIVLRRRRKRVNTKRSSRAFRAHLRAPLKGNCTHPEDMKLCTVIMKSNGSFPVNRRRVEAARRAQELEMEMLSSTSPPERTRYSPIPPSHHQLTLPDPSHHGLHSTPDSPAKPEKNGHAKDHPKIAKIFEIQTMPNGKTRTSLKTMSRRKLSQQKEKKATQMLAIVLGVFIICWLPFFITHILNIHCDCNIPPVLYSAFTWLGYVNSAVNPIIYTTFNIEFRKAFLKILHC
The target in assay [2] is T2, 5-hydroxytryptamine receptor 1A (Homo sapiens, UniProt P08908).
T2 sequence (P08908 whole entry): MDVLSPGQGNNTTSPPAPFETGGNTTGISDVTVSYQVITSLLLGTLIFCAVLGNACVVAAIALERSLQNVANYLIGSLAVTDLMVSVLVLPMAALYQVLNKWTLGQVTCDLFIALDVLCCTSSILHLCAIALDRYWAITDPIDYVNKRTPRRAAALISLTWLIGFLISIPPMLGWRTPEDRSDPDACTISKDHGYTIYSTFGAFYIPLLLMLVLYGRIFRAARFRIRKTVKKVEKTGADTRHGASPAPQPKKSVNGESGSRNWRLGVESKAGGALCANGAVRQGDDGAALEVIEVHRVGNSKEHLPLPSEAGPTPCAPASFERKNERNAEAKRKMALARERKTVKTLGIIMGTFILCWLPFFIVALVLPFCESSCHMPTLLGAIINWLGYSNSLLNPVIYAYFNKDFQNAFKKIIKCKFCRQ
As to the kind of experiment: Displacement of [3H]8-OH-DPAT from human recombinant 5HT1A receptor expressed in HEK293 cells. The format is cell-based.

The target of assay [3] is T1, D(2) dopamine receptor. As to the kind of experiment: Displacement of [3H]spiroperidol from human recombinant Dopamine D2 long receptor.
The target of assay [4] is 5-hydroxytryptamine receptor 7 (Rattus norvegicus, UniProt P32305). As to the kind of experiment: Displacement of [3H]LSD from rat recombinant 5HT7 receptor expressed in HEK293 cells. In kind it is cell-based.
Chain of 5-hydroxytryptamine receptor 7 (Rattus norvegicus, UniProt P32305) (P32305 whole entry): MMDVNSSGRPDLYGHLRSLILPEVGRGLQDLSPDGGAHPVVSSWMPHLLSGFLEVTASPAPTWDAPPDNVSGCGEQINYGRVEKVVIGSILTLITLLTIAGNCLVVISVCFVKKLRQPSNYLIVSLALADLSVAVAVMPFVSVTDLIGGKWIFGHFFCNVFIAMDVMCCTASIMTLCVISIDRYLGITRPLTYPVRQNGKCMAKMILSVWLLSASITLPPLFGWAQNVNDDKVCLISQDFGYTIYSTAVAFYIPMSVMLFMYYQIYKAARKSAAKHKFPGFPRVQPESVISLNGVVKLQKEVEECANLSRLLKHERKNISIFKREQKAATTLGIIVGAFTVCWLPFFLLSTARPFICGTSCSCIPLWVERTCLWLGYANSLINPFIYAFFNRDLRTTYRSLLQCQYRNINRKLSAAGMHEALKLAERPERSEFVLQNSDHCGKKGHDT
The target of assay [5] is 5-hydroxytryptamine receptor 7 (Cavia porcellus) (UniProt P50407). In words: (§1) Agonist activity at 5HT7 receptor in guinea pig ileum assessed as relaxation of substance P-induced contraction. In kind it is functional, tissue-based.
Chain of 5-hydroxytryptamine receptor 7 (Cavia porcellus) (P50407 whole entry): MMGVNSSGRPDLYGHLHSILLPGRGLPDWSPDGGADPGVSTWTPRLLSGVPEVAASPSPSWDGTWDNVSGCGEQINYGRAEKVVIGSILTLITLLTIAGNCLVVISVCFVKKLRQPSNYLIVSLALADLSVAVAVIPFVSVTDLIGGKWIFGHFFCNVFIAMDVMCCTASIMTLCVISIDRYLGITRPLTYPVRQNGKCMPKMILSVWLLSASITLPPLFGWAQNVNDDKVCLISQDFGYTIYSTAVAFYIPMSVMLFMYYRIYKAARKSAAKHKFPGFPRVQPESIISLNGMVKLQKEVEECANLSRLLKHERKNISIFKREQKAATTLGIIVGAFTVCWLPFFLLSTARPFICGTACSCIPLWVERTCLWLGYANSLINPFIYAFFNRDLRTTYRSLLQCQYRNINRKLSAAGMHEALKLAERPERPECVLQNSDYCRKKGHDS
In assay [6] the target is T3, 5-hydroxytryptamine receptor 7 (Cavia porcellus, UniProt P50407). Described as §1. In kind it is functional, tissue-based.
T3 sequence (P50407 whole entry): as above
Assay [7] addresses 5-hydroxytryptamine receptor 2A (Rattus norvegicus, UniProt P14842). As to the kind of experiment: Displacement of [3H]ketanserin from 5HT2A receptor in Sprague-Dawley cortex membrane. In kind it is cell membranes.
Assay [8] can be described thus: Ratio of Ki for human Dopamine D2L receptor to Ki for rat 5HT7 receptor.
Assay [9] is described as follows: Selectivity for rat 5HT7 over human 5HT1A.
Assay [10] addresses T3, 5-hydroxytryptamine receptor 7. As to the kind of experiment: Antagonist activity at 5HT7 receptor in guinea pig ileum assessed as effect on substance P-induced contraction. In kind it is functional, tissue-based. The note with it: read-out: pA2 (converted).
Assay [11] deals with 5-hydroxytryptamine receptor 2A (Rattus norvegicus) (UniProt P14842). As to the kind of experiment: Displacement of [3H]ketanserin from 5HT2A receptor in Sprague-Dawley cortex membrane at >4000 uM. The format is cell membranes.
Chain of 5-hydroxytryptamine receptor 2A (Rattus norvegicus) (P14842 whole entry): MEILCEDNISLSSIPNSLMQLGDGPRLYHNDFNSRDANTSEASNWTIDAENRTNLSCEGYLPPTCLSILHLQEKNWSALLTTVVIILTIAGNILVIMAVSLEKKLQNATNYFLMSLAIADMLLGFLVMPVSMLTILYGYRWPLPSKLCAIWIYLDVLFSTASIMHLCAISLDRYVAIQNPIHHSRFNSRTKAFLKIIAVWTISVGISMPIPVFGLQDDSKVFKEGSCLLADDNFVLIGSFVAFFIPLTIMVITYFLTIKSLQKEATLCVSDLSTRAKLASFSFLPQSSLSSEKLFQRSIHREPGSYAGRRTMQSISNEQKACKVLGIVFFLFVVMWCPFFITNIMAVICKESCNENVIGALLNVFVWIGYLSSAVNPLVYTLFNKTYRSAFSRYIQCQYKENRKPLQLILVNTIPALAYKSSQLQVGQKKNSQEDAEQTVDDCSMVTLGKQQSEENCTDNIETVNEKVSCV
Assay [12] deals with T3, 5-hydroxytryptamine receptor 7. As to the kind of experiment: Antagonist activity at 5HT7 receptor in guinea pig ileum assessed as effect on 6-(4-phenylpiperazin-1-yl)-N-(1,2,3,4-tetrahydronaphthalen-1-yl)hexanamide mediated relaxation of substance P-induced contraction. In kind it is functional, tissue-based. As to conditions: read-out: pA2 (converted).
For assay [13] the target is unchanged. As to the kind of experiment: Antagonist activity at 5HT7 receptor in guinea pig ileum assessed as effect on 6-(4-(2-chlorophenyl)piperazine-1-yl)-N-(1,2,3,4-tetrahydronaphthalen-1-yl)hexanamide mediated relaxation of substance P-induced contraction. In kind it is functional, tissue-based. As to conditions: read-out: pA2 (converted).
Assay [14] has the same target. As to the kind of experiment: Antagonist activity at 5HT7 receptor in guinea pig ileum assessed as effect on 3-(2-aminoethyl)-1H-indole-5-carboxamide mediated relaxation of substance P-induced contraction. The format is functional, tissue-based. The note with it: read-out: pA2 (converted).
The target is the same in assay [15]. As to the kind of experiment: Antagonist activity at 5HT7 receptor in guinea pig ileum assessed as effect on 4-(2-dimethylaminophenyl)-N-(1,2,3,4-tetrahydronaphthalen-1-yl)-1-piperazine hexanamide mediated relaxation of substance P-induced contraction. The note with it: read-out: pA2 (converted). The format is functional, tissue-based.
Assay [16] has the same target. As to the kind of experiment: Antagonist activity at 5HT7 receptor in guinea pig ileum assessed as effect on 6-(4-(2-nitrophenyl)piperazin-1-yl)-N-(1,2,3,4-tetrahydronaphthalen-1-yl)hexanamide mediated relaxation of substance P-induced contraction. As to conditions: read-out: pA2 (converted). The format is functional, tissue-based.
For assay [17] the target is unchanged. As to the kind of experiment: Antagonist activity at 5HT7 receptor in guinea pig ileum assessed as effect on 4-(2-diphenyl)-N-(1,2,3,4-tetrahydronaphthalen-1-yl)-1-piperazine hexanamide mediated relaxation of substance P-induced contraction. As to conditions: read-out: pA2 (converted). The format is functional, tissue-based.
For assay [18] the target is unchanged. In words: Antagonist activity at 5HT7 receptor in guinea pig ileum assessed as effect on 4-[2-(1-methylethyl)phenyl]-N-(1,2,3,4-tetrahydronaphthalen-1-yl)-1-piperazine hexanamide mediated relaxation of substance P-induced contraction. The format is functional, tissue-based. As to conditions: read-out: pA2 (converted).

Chain of 5-hydroxytryptamine receptor 2A (P14842 whole entry): as above

Turning to `CC(C)(C)c1ccccc1N1CCN(CCCCCC(=O)NC2CCCc3ccccc32)CC1` (stereo not given), the inhibition in [1] stood at 38%. In addition, the inhibition constant Ki is 1200 nM in assay [2], over 1000 nM in assay [3] and 538 nM in assay [4].
As for `O=C(CCCCCN1CCN(c2ccccc2[N+](=O)[O-])CC1)NC1CCCc2ccccc21` (stereo not given), the inhibition constant Ki in assay [3] was found to be 681 nM. Also, in assay [5], the %max came to 24%. In addition, the EC50 in assay [6] was 10000 nM.
Take `CCc1ccccc1N1CCN(CCCCCC(=O)NC2CCCc3ccccc32)CC1` (stereo not given): the inhibition constant Ki amounted to 3370 nM in [7], 79.2 nM in [2], 173 nM in assay [3] and 7.1 nM in [4].
Turning to `NCCc1c[nH]c2ccc(C(N)=O)cc12`, the Ki in assay [4] was found to be 0.5 nM. Moreover, the %max in [5] came to 100%. For the same compound, in [6], the 50% effective concentration (EC50) worked out at 630 nM.
As to `CCCCc1ccccc1N1CCN(CCCCCC(=O)NC2CCCc3ccccc32)CC1` (stereo not given), the results for the inhibitory constant (Ki) in assay [2], in assay [3] and in assay [4] were 60 nM, 60 nM and 2810 nM, respectively.
In the case of `Nc1ccccc1N1CCN(CCCCCC(=O)NC2CCCc3ccccc32)CC1` (stereo not given), the Ki in [2] turned out to be 415 nM; in assay [4], 8180 nM.
Regarding `CC(=O)Nc1ccccc1N1CCN(CCCCCC(=O)NC2CCCc3ccccc32)CC1` (stereo not given), the Ki was 3520 nM in assay [7], 2500 nM in [2], over 1000 nM in assay [3] and 338 nM in assay [4]. In addition, the inhibition in assay [1] came out at 35%.
Consider `O=C(CCCCCN1CCN(c2cccc[n+]2[O-])CC1)NC1CCCc2ccccc21` (stereo not given), for which the inhibition constant (Ki) was 194 nM in assay [2] and 8030 nM in [4].
`CC(=O)c1ccccc1N1CCN(CCCCCC(=O)NC2CCCc3ccccc32)CC1` (stereo not given): in assay [3], the inhibitory constant (Ki) was 68 nM.
For `O=C(CCCCCN1CCN(c2ccccc2-c2ccccc2)CC1)NC1CCCc2ccccc21` (stereo not given), the inhibitory constant (Ki) came out at 1460 nM in assay [7], 60.9 nM in assay [2], 224 nM in assay [3] and 0.13 nM in assay [4]. For the same compound, the Ratio Ki in assay [8] was determined as 1720. Moreover, in assay [5], the %max was 74%. In addition, the half-maximal effective concentration (EC50) in [6] turned out to be 1770 nM. Further, the Selectivity ratio in [9] was over 100.
With `O=C(CCCCCN1CCN(c2ccccc2)CC1)NC1CCCc2ccccc21` (stereo not given), the Ki in assay [3] is 1000 nM. For the same compound, in [5], the %max turned out to be 40%. In addition, in assay [6], the EC50 came to 8000 nM.
In the same order, the values of `O=C(CCCCCN1CCN(c2ccccc2Cl)CC1)NC1CCCc2ccccc21` (stereo not given) are 51 nM, 13% and 17000 nM.
On to `Cc1ccccc1N1CCN(CCCCCC(=O)NC2CCCc3ccccc32)CC1` (stereo not given), for which the inhibition constant (Ki) in [3] stood at 143 nM.
Turning to `O=C(CCCCCN1CCN(c2ccccn2)CC1)NC1CCCc2ccccc21` (stereo not given), the inhibition constant Ki is 535 nM in assay [7], 36.4 nM in [2], over 1000 nM in assay [3] and 278 nM in assay [4]. Also, the inhibition in [1] stood at 15%.
As to `CCCc1ccccc1N1CCN(CCCCCC(=O)NC2CCCc3ccccc32)CC1` (stereo not given), the Ki in assay [7] came out at 3190 nM; in assay [2], 168 nM; in assay [3], 123 nM; in assay [4] it was 49.6 nM.
For `CN(C)c1ccccc1N1CCN(CCCCCC(=O)NC2CCCc3ccccc32)CC1` (stereo not given), the Ki turned out to be 559 nM in assay [7], 112 nM in [2], 32 nM in assay [3] and 0.9 nM in [4]. Besides, the %max in assay [5] stood at 100%. Besides, in [6], the 50% effective concentration (EC50) was 1170 nM. Besides, the Selectivity ratio in assay [9] is over 100.
In the case of `CS(=O)(=O)Nc1ccccc1N1CCN(CCCCCC(=O)NC2CCCc3ccccc32)CC1` (stereo not given), the inhibition in [1] is 28%. For the same compound, the Ki in assay [3] is over 1000 nM; in [4], 4250 nM.
`O=C(CCCCCN1CCN(c2ccccc2F)CC1)NC1CCCc2ccccc21` (stereo not given): the Ki in [7] turned out to be 194 nM; in [2], 29.2 nM; in assay [3], 292 nM; in assay [4] it was 131 nM.
With `CSc1ccccc1N1CCN(CCCCCC(=O)NC2CCCc3ccccc32)CC1` (stereo not given), the Ki in assay [3] is 7.3 nM.
For the compound `CNc1ccccc1N1CCN(CCCCCC(=O)NC2CCCc3ccccc32)CC1` (stereo not given), the Ki in assay [7] came out at 1590 nM; in assay [2], 133 nM; in [3], 107 nM; in assay [4], 25.4 nM. For the same compound, in assay [5], the %max stood at 0%. Moreover, the Kb in assay [10] is 20 nM.
With `CC(C)c1ccccc1N1CCN(CCCCCC(=O)NC2CCCc3ccccc32)CC1` (stereo not given), the Ki in [7] was 4820 nM; in assay [2], 167 nM; in [3], 15 nM; in assay [4], 1.1 nM. In addition, the %max in assay [5] came to 83%. Further, the EC50 in assay [6] is 900 nM. In addition, the Selectivity ratio in assay [9] was over 100.
Regarding `CS(=O)(=O)c1ccccc1N1CCN(CCCCCC(=O)NC2CCCc3ccccc32)CC1` (stereo not given), the inhibition in assay [1] was 32%; in assay [11], 38%. Besides, in assay [3], the inhibitory constant (Ki) is over 1000 nM.
In the same order, the values of `NC(=O)c1ccccc1N1CCN(CCCCCC(=O)NC2CCCc3ccccc32)CC1` (stereo not given) are 32%, 9% and over 1000 nM.
On to `O=C(CCCCCN1CCN(c2ccccc2O)CC1)NC1CCCc2ccccc21` (stereo not given), for which the Ki in assay [3] stood at 987 nM.
As to `COc1ccccc1N1CCN(CCCCCC(=O)NC2CCCc3ccccc32)CC1` (stereo not given), the Ki in assay [3] stood at 26.4 nM.
For `CC1CCN(CC[C@H]2CCCN2S(=O)(=O)c2cccc(O)c2)CC1`, the Kb in assay [12] is 7.94 nM; in [13], 3.98 nM; in assay [14] it was 33.1 nM; in assay [15], 12.6 nM; in assay [16], 6.31 nM; in assay [17], 14.5 nM. In addition, the Kb in assay [18] is 8.91 nM.
In the case of `N#Cc1ccccc1N1CCN(CCCCCC(=O)NC2CCCc3ccccc32)CC1` (stereo not given), in assay [3], the Ki was determined as 265 nM.
